Data as given in paper PMC3857843, “Multiple Transport-Active Binding Sites Are Available for a Single Substrate on Human P-Glycoprotein (ABCB1)” (PLoS ONE, 2013).

Legend:
Q725C mutant Pgp [1] = target: T1, Q725C mutant Pgp (Homo sapiens, UniProt P08183, C1074A/C1125A/C1227A/C137A/C431A/C717A/C956A/Q725C); assay: Transport of fluorescent substrates in BacMam-transduced HeLa cells (flow cytometry); conditions: compared to cysless WT Pgp (taken as 100%), calcein-AM 0.5 µM 10 min, Rh123 […], other substrates 0.5 µM 45 min
Procedure: (§1) The BacMam-Pgp virus (encoding cysless WT and the mutant Pgps) was added to 2.5 million HeLa cells at a titer of 50-60 viral particles per cell in 3 ml of DMEM and incubated at 37°C [30]. After 1 hr DMEM was added to make a total of 20 ml in the flask and these infected cells were further incubated for 3-4 hrs. 10 mM butyric acid was then added and the cells continued to incubate at 37°C. After 24 hrs, the cells were trypsinized, washed, counted and analyzed by flow cytometry for cell surface expression and the function of the wildtype and mutant Pgps.
(§2) The transport function of cysless WT and mutant Pgps was determined using fluorescent compounds with flow cytometry as previously described. […] Cells were washed with cold PBS and resuspended in PBS containing 0.1% BSA before analysis.

F978C mutant Pgp = F978C mutant Pgp (Homo sapiens, UniProt P08183, C1074A/C1125A/C1227A/C137A/C431A/C717A/C956A/F978C); assay: as above; conditions: compared to cysless WT Pgp (taken as 100%), calcein-AM 0.5 µM 10 min, Rh123 […], other substrates 0.5 µM 45 min
Procedure: as §1, §2

Y307C mutant Pgp [2] = target: T2, Y307C mutant Pgp (Homo sapiens, UniProt P08183, C1074A/C1125A/C1227A/C137A/C431A/C717A/C956A/Y307C); assay: as above; conditions: compared to cysless WT Pgp (taken as 100%), calcein-AM 0.5 µM 10 min, Rh123 […], other substrates 0.5 µM 45 min
Procedure: as §1, §2

V982C mutant Pgp [3] = target: T3, V982C mutant Pgp (Homo sapiens, UniProt P08183, C1074A/C1125A/C1227A/C137A/C431A/C717A/C956A/V982C); assay: as above; conditions: compared to cysless WT Pgp (taken as 100%), calcein-AM 0.5 µM 10 min, Rh123 […], other substrates 0.5 µM 45 min
T3 sequence (P08183 whole entry C137A/C431A/C717A/C956A/V982C/C1074A/C1125A/C1227A): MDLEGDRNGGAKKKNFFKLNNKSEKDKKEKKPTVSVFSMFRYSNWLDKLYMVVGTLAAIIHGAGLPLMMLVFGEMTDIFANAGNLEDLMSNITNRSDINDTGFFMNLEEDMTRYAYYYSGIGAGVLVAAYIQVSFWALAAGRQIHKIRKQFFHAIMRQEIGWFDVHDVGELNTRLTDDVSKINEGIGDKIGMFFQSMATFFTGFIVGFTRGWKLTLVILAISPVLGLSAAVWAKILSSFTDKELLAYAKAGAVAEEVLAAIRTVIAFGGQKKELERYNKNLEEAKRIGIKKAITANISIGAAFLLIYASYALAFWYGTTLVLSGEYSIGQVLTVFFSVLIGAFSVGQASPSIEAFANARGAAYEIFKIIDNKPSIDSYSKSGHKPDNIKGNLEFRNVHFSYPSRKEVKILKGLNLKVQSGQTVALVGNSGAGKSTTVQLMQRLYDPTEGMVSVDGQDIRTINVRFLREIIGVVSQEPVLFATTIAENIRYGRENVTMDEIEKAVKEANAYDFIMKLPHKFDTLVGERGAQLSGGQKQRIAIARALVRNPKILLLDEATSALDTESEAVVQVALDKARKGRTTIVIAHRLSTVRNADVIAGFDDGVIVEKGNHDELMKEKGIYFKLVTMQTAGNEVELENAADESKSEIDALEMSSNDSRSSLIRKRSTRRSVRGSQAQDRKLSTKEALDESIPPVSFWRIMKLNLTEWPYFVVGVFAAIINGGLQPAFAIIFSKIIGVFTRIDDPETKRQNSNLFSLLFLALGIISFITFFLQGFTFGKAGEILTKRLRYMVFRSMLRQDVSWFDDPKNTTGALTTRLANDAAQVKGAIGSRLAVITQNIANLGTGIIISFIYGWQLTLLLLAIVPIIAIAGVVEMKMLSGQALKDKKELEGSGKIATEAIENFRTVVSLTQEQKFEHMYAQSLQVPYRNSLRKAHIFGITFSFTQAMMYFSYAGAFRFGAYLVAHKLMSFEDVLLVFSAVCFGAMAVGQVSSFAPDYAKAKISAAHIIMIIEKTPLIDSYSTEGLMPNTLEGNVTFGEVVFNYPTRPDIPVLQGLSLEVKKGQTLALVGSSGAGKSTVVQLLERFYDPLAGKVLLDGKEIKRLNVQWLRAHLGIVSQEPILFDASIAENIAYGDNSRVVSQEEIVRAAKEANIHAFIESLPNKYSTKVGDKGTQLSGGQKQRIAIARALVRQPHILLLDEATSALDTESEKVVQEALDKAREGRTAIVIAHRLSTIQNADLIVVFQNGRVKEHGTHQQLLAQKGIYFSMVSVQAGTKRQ
Procedure: as §1, §2

F343C mutant Pgp [4] = target: T4, F343C mutant Pgp (Homo sapiens, UniProt P08183, C1074A/C1125A/C1227A/C137A/C431A/C717A/C956A/F343C); assay: as above; conditions: compared to cysless WT Pgp (taken as 100%), calcein-AM 0.5 µM 10 min, Rh123 […], other substrates 0.5 µM 45 min
T4 sequence (P08183 whole entry C137A/F343C/C431A/C717A/C956A/C1074A/C1125A/C1227A): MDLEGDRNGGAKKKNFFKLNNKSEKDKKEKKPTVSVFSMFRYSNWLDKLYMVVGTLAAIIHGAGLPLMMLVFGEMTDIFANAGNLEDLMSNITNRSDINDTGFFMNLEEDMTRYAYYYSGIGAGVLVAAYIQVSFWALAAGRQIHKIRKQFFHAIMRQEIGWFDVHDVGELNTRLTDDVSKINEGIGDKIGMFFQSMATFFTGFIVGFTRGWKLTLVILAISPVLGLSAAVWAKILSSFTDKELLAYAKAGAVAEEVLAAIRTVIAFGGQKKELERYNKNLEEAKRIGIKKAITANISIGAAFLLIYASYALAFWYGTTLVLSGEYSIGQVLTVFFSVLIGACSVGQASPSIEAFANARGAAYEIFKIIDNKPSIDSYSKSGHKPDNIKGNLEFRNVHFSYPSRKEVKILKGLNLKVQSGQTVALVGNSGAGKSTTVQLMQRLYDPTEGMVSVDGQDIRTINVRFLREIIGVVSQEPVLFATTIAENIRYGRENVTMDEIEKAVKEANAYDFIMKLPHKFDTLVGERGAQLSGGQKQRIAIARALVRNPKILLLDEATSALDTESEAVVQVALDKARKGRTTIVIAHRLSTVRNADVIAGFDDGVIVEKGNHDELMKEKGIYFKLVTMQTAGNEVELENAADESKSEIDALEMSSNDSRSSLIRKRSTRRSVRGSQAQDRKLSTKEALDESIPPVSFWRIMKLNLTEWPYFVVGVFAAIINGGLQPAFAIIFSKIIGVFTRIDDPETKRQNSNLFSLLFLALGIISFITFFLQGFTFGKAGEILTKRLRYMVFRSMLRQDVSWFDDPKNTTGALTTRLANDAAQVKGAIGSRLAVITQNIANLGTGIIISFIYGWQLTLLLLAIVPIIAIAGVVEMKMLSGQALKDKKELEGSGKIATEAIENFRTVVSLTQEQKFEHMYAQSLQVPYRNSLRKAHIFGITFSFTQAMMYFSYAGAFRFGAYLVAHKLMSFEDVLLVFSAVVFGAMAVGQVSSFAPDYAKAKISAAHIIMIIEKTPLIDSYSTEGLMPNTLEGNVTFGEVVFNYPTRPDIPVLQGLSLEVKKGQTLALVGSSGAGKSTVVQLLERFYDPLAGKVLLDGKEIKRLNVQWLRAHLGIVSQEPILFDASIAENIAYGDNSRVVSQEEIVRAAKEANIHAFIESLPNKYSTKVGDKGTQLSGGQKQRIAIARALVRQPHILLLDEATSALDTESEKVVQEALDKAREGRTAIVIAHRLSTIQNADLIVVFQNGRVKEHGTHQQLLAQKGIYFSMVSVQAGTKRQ
Procedure: as §1, §2

Q725C/V982C mutant Pgp [5] = target: T5, Q725C/V982C mutant Pgp (Homo sapiens, UniProt P08183, C1074A/C1125A/C1227A/C137A/C431A/C717A/C956A/Q725C/V982C); assay: as above; conditions: compared to cysless WT Pgp (taken as 100%), calcein-AM 0.5 µM 10 min, Rh123 […], other substrates 0.5 µM 45 min
T5 sequence (P08183 whole entry C137A/C431A/C717A/Q725C/C956A/V982C/C1074A/C1125A/C1227A): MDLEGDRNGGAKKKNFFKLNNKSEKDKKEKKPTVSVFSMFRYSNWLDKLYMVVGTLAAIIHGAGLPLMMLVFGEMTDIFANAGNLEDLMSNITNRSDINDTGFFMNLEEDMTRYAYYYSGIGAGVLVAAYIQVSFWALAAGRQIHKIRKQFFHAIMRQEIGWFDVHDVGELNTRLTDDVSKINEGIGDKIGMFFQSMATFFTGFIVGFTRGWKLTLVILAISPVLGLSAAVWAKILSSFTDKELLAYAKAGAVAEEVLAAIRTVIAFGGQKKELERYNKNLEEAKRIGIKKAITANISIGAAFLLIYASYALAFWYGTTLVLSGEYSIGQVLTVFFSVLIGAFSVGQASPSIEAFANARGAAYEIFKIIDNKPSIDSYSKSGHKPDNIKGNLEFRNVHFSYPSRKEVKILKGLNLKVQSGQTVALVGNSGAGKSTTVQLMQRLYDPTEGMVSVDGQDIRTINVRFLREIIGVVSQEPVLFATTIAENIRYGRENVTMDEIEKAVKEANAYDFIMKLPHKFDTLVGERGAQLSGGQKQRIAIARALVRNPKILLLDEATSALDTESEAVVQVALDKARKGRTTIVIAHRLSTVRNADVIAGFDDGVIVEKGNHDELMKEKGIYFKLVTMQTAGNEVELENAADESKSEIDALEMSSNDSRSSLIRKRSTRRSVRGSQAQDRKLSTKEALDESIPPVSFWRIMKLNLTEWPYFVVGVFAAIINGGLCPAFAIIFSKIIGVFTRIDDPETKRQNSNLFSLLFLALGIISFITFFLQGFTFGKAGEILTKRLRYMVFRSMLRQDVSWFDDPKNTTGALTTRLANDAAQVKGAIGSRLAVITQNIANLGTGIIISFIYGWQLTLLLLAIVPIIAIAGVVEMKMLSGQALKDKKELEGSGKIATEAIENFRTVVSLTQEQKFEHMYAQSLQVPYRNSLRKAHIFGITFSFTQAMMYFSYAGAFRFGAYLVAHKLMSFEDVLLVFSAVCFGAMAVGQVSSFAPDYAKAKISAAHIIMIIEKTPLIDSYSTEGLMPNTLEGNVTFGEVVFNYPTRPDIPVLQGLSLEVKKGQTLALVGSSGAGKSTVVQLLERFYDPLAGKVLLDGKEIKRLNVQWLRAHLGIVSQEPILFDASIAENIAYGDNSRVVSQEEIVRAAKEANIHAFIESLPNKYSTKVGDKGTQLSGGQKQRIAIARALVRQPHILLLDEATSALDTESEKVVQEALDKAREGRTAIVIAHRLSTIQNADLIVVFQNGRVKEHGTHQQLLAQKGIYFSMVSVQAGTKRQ
Procedure: as §1, §2

F728C mutant Pgp [6] = target: T6, F728C mutant Pgp (Homo sapiens, UniProt P08183, C1074A/C1125A/C1227A/C137A/C431A/C717A/C956A/F728C); assay: as above; conditions: compared to cysless WT Pgp (taken as 100%), calcein-AM 0.5 µM 10 min, Rh123 […], other substrates 0.5 µM 45 min
Procedure: as §1, §2

F343C/V982C mutant Pgp [7] = target: T7, F343C/V982C mutant Pgp (Homo sapiens, UniProt P08183, C1074A/C1125A/C1227A/C137A/C431A/C717A/C956A/F343C/V982C); assay: as above; conditions: compared to cysless WT Pgp (taken as 100%), calcein-AM 0.5 µM 10 min, Rh123 […], other substrates 0.5 µM 45 min
Procedure: as §1, §2

cysless WT Pgp [8] = target: T8, cysless WT Pgp (Homo sapiens, UniProt P08183, C1074A/C1125A/C1227A/C137A/C431A/C717A/C956A); assay: Vanadate-sensitive ATP hydrolysis of Pgp in crude membranes; conditions: Verapamil 50 µM, QZ59-SSS 1 µM, Valinomycin 10 µM, FSBA 1 mM
T8 sequence (P08183 whole entry C137A/C431A/C717A/C956A/C1074A/C1125A/C1227A): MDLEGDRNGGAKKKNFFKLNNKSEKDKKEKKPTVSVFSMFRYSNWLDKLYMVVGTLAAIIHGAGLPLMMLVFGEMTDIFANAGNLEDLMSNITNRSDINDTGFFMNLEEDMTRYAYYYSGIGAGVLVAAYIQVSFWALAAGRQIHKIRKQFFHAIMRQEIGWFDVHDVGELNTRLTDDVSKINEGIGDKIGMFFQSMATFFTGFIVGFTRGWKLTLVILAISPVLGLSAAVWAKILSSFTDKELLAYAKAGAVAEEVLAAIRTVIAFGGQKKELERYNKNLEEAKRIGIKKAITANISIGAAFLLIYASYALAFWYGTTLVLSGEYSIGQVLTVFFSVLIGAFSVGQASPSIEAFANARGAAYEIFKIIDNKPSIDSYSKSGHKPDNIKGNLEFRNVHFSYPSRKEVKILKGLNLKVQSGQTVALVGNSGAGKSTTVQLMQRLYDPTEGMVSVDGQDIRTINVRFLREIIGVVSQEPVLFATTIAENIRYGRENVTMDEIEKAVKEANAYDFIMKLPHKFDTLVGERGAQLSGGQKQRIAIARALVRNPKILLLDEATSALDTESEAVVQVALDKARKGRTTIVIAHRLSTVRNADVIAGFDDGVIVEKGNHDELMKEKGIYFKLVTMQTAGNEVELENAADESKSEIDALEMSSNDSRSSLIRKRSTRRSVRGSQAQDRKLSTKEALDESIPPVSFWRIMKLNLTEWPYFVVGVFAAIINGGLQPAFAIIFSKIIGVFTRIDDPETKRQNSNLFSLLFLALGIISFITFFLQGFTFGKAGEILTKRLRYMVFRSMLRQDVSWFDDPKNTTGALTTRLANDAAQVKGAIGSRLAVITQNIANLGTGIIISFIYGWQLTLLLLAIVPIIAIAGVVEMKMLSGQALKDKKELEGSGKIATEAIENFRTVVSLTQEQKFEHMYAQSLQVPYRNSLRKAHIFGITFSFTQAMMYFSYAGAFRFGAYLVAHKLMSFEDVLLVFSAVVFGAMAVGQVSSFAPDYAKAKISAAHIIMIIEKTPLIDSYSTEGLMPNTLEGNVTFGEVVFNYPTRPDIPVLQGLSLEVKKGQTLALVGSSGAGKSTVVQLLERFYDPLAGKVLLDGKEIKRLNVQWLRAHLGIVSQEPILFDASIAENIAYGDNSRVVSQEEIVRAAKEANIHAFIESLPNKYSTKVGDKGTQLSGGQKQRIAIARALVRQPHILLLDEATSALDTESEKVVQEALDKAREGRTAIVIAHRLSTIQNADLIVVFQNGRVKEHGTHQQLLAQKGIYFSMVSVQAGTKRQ
Procedure: (§3) Vanadate-sensitive Pgp-mediated ATP hydrolysis was measured as described in Materials and Methods. […] At least two independent experiments were carried out for each mutant with indicated compounds. Additional information including standard deviations, fold-stimulation or % inhibition, and number of experiments is given in the section (Tables S2 and S3).
(§4) High-Five insect cells (Invitrogen, Carlsbad, CA) were infected with recombinant baculovirus carrying the human MDR1 cDNA cysless WT and various mutant Pgps, with a His6-tag at the C-terminus as described previously. Crude membranes were prepared as described previously
(§5) Crude membranes (10-25 µg protein/100 µ L) from High Five insect cells expressing cysless WT or mutant Pgp were incubated in the presence and absence of sodium orthovanadate (0.3 mM), in a buffer containing 50 mM MES-Tris pH 6.8, 50 mM KCl, 5 mM NaN3, 1 mM EGTA, 1 mM ouabain, 2 mM DTT, and 10 mM MgCl2. […] The reaction was initiated by addition of 5 mM ATP and continued for 20 min at 37°C. […] The reaction was stopped by addition of 100 µ L of 5% SDS and the amount of inorganic phosphate generated was quantified with a colorimetric reaction, as previously described.

Q725C mutant Pgp [9] = target: T1, Q725C mutant Pgp; assay: as above; conditions: Verapamil 50 µM, QZ59-SSS 1 µM, Valinomycin 10 µM, FSBA 1 mM
Procedure: as §3, §4, §5

Y307C mutant Pgp [10] = target: T2, Y307C mutant Pgp; assay: as above; conditions: Verapamil 50 µM, QZ59-SSS 1 µM, Valinomycin 10 µM, FSBA 1 mM
Procedure: as §3, §4, §5

V982C mutant Pgp [11] = target: T3, V982C mutant Pgp; assay: as above; conditions: Verapamil 50 µM, QZ59-SSS 1 µM, Valinomycin 10 µM, FSBA 1 mM
Procedure: as §3, §4, §5

F343C mutant Pgp [12] = target: T4, F343C mutant Pgp; assay: as above; conditions: Verapamil 50 µM, QZ59-SSS 1 µM, FSBA 1 mM
Procedure: as §3, §4, §5

F728C/V982C mutant Pgp = F728C/V982C mutant Pgp (Homo sapiens, UniProt P08183, C1074A/C1125A/C1227A/C137A/C431A/C717A/C956A/F728C/V982C); assay: as above; conditions: Verapamil 50 µM, QZ59-SSS 1 µM, Valinomycin 10 µM, FSBA 1 mM
Procedure: as §3, §4, §5

Q725C/V982C mutant Pgp [13] = target: T5, Q725C/V982C mutant Pgp; assay: as above; conditions: Verapamil 50 µM, QZ59-SSS 1 µM, Valinomycin 10 µM, FSBA 1 mM
Procedure: as §3, §4, §5

[14] = target: T9, Y307C/Q725C/V982C mutant Pgp (Homo sapiens, UniProt P08183, C1074A/C1125A/C1227A/C137A/C431A/C717A/C956A/Q725C/V982C/Y307C); assay: as above; conditions: Verapamil 50 µM, QZ59-SSS 1 µM, Valinomycin 10 µM, FSBA 1 mM
Procedure: as §3, §4, §5

F728C mutant Pgp [15] = target: T6, F728C mutant Pgp; assay: as above; conditions: Verapamil 50 µM, QZ59-SSS 1 µM, Valinomycin 10 µM, FSBA 1 mM
Procedure: as §3, §4, §5

F343C/V982C mutant Pgp [16] = target: T7, F343C/V982C mutant Pgp; assay: as above; conditions: Verapamil 50 µM, QZ59-SSS 1 µM, Valinomycin 10 µM, FSBA 1 mM
Procedure: as §3, §4, §5

Y307C/V982C mutant Pgp = Y307C/V982C mutant Pgp (Homo sapiens, UniProt P08183, C1074A/C1125A/C1227A/C137A/C431A/C717A/C956A/V982C/Y307C); assay: as above; conditions: Verapamil 50 µM, QZ59-SSS 1 µM, Valinomycin 10 µM, FSBA 1 mM
Procedure: as §3, §4, §5

cysless WT Pgp [17] = target: T8, cysless WT Pgp; assay: Inhibition of IAAP photo-labeling of Pgp in crude membranes
Procedure: (§6) Then, samples were photocrosslinked with IAAP at 4°C as described in the Materials and Methods section. Mean values from at least three independent experiments are plotted and error bars depict SD.
as §4
(§7) The crude membranes of High-Five insect cells containing 60-80 µg protein per 100 µL in 50 mM MES-Tris buffer (pH 6.8), were incubated for 10 minutes at 37°C in the absence (control) and presence of compound(s) at indicated concentration.

[18] = target: T9, Y307C/Q725C/V982C mutant Pgp; assay: as above
Procedure: as §6, §4, §7

all mutant Pgps = assay: Vanadate-sensitive ATP hydrolysis of Pgp in crude membranes; type: biochemical, human
Procedure: Crude membranes were prepared as described previously

SMILES: COc1cccc2c1C(=O)c1c(O)c3c(c(O)c1C2=O)C[C@@](O)(C(C)=O)C[C@@H]3O[C@H]1C[C@H](N)[C@H](O)[C@H](C)O1 [Dauno, daunorubicin]
- Transport function (Q725C mutant Pgp [1]): 90-100%
- Transport function (F978C mutant Pgp): 90-100%
- Transport function (Y307C mutant Pgp [2]): 90-100%
- Transport function (V982C mutant Pgp [3]): 90-100%
- Transport function (F343C mutant Pgp [4]): 90-100%
- Transport function (Q725C/V982C mutant Pgp [5]): 90-100%
- Transport function (F728C mutant Pgp [6]): 90-100%
- Transport function (F343C/V982C mutant Pgp [7]): 90-100%

SMILES: Nc1ncnc2c1ncn2[C@@H]1O[C@H](COC(=O)c2ccc(S(=O)(=O)F)cc2)[C@@H](O)[C@H]1O [FSBA, 5′-fluorosulfonylbenzoyl 5′-adenosine]
- ATP hydrolysis, Average (cysless WT Pgp [8]): 52 nmoles Pi/min/mg protein
- ATP hydrolysis, Fold-stimulation (cysless WT Pgp [8]; relative to basal): 2.4
- ATP hydrolysis, Average (Q725C mutant Pgp [9]): 10 nmoles Pi/min/mg protein
- ATP hydrolysis, Fold-stimulation (Q725C mutant Pgp [9]; relative to basal): 2.0
- ATP hydrolysis, Average (Y307C mutant Pgp [10]): 14 nmoles Pi/min/mg protein
- ATP hydrolysis, Fold-stimulation (Y307C mutant Pgp [10]; relative to basal): 1.9
- ATP hydrolysis, Average (V982C mutant Pgp [11]): 28 nmoles Pi/min/mg protein
- ATP hydrolysis, Fold-stimulation (V982C mutant Pgp [11]; relative to basal): 2.4
- ATP hydrolysis, Average (F343C mutant Pgp [12]): 39 nmoles Pi/min/mg protein
- ATP hydrolysis, Fold-stimulation (F343C mutant Pgp [12]; relative to basal): 2.1
- ATP hydrolysis, Average (F728C/V982C mutant Pgp): 5 nmoles Pi/min/mg protein
- ATP hydrolysis, Fold-stimulation (F728C/V982C mutant Pgp; relative to basal): 1.1
- ATP hydrolysis, Average (Q725C/V982C mutant Pgp [13]): 12 nmoles Pi/min/mg protein
- ATP hydrolysis, Fold-stimulation (Q725C/V982C mutant Pgp [13]; relative to basal): 2.3
- ATP hydrolysis, Average [14]: 6 nmoles Pi/min/mg protein
- ATP hydrolysis, Average (F728C mutant Pgp [15]): 11 nmoles Pi/min/mg protein
- ATP hydrolysis, Fold-stimulation (F728C mutant Pgp [15]; relative to basal): 1.8
- ATP hydrolysis, Average (F343C/V982C mutant Pgp [16]): 50 nmoles Pi/min/mg protein
- ATP hydrolysis, Fold-stimulation (F343C/V982C mutant Pgp [16]; relative to basal): 2.7
- ATP hydrolysis, Average (Y307C/V982C mutant Pgp): 20 nmoles Pi/min/mg protein
- ATP hydrolysis, Fold-stimulation (Y307C/V982C mutant Pgp; relative to basal): 2.1
- Max Inhibition (%) of IAAP-labeling (cysless WT Pgp [17]; Cysless WT, High-Five crude membranes): 85%
- IC50 (cysless WT Pgp [17]; read-out: IC50 (µM), inhibition of IAAP-labeling, Cysless WT, High-Five crude membranes): 390 µM
- Inhibition of IAAP photo-labeling ([18]; Y307C/Q725C/V982C, at higher concentrations): < 30%

SMILES: CC(C)[C@@H]1NC(=O)c2csc(n2)[C@H](C(C)C)NC(=O)c2csc(n2)[C@H](C(C)C)NC(=O)c2csc1n2 [QZ59-SSS]
- Modulation of ATP hydrolysis (all mutant Pgps; all mutant Pgps, inhibition measured in presence of verapamil 5 µM): stimulates ATP hydrolysis of the mutant Pgps with no exceptions
- IC50 (cysless WT Pgp [17]): 6 µM
- Max Inhibition (%) of IAAP-labeling (cysless WT Pgp [17]): 72%
- Inhibition of IAAP photo-labeling [18]: < 30%

SMILES: COC(=O)c1ccccc1-c1c2ccc(=N)cc-2oc2cc(N)ccc12 [Rh123, rhodamine123]
- Transport function (Q725C mutant Pgp [1]): 90-100%
- Transport function (F978C mutant Pgp): 90-100%
- Transport function (Y307C mutant Pgp [2]): 90-100%
- Transport function (V982C mutant Pgp [3]): 90-100%
- Transport function (F343C mutant Pgp [4]): 90-100%
- Transport function (Q725C/V982C mutant Pgp [5]): 90-100%
- Transport function (F728C mutant Pgp [6]): 90-100%
- Transport function (F343C/V982C mutant Pgp [7]): 90-100%

SMILES: COc1ccc(CCN(C)CCCC(C#N)(c2ccc(OC)c(OC)c2)C(C)C)cc1OC (stereo not drawn) [Verapamil, verapamil]
- Stimulation of ATP hydrolysis (all mutant Pgps; all the mutants, Verapamil 50 µM): 2-4 fold
